Experimental data as given in ChEMBL document CHEMBL1157461, “Potent non-nucleoside inhibitors of the measles virus RNA-dependent RNA polymerase complex” (J Med Chem, 2008).

Tests used:
[1] = Selectivity index, ratio of CC50 for Vero cells to EC50 for Measles virus Leningrad 16; format: toxicity, cell-based; settings: monkey, read-out: Ratio CC50/EC50
[2] = Cytotoxicity against african green monkey Vero cells by MTT assay; format: cell-based; settings: chlorocebus sabaeus
[3] = test system: Measles morbillivirus; experiment: Antiviral activity against Measles virus Alaska in Vero cells assessed as inhibition of cytopathic effect; format: functional, organism-based
[4] = test system: Measles morbillivirus; experiment: Antiviral activity against Measles virus Alaska in Vero cells assessed as reduction of viral titer; format: functional, organism-based
[5] = Cytotoxicity against african green monkey Vero cells by trypan blue exclusion assay; format: cell-based; settings: chlorocebus sabaeus
[6] = (§1) Selectivity index, ratio of CC50 for african green monkey Vero cells to EC50 for Measles virus Alaska; format: toxicity, cell-based; settings: read-out: Ratio CC50/EC50
[7] = as §1; format: toxicity, cell-based; settings: read-out: Ratio CC50/EC50; remark: listed apart in the source
[8] = test system: Measles morbillivirus; experiment: Antiviral activity against Measles virus Edmonston; format: functional, organism-based

Compound | CC50 [2] | EC50 [3] | EC50 [4] | other results
NC(=O)c1ncn([C@@H]2O[C@H](CO)[C@@H](O)[C@H]2O)n1 [RIBAVIRIN] | – | – | – | selectivity ratio [1]: 14.4
COC(=O)C1CCCCN1S(=O)(=O)c1ccc(NC(=O)c2cc(C(F)(F)F)nn2C)cc1 (configuration not stated) | 136 µM | 10 µM | – | –
C=CCN(CC=C)S(=O)(=O)c1ccc(NC(=O)c2cc(C(F)(F)F)nn2C)cc1 | 34 µM | 3.3 µM | – | –
CN(C)S(=O)(=O)c1ccc(NC(=O)c2cc(C(F)(F)F)nn2C)cc1 | > 300 µM | 6.3 µM | – | –
CCCN(CCC)S(=O)(=O)c1ccc(NC(=O)c2cc(C(F)(F)F)nn2C)cc1 | > 300 µM | < 2.3 µM | 0.19 µM | –
CC1CCN(S(=O)(=O)c2ccc(NC(=O)c3cc(C(F)(F)F)nn3C)cc2)CC1 | > 300 µM | < 2.3 µM | 0.035 µM | CC50 [5]: 53 µM
Cn1nc(C(F)(F)F)cc1C(=O)Nc1ccc(S(=O)(=O)N2CCC(C(F)(F)F)CC2)cc1 | 159 µM | 2.3 µM | 0.02 µM | –
CC(C)CN(CC(C)C)S(=O)(=O)c1ccc(NC(=O)c2cc(C(F)(F)F)nn2C)cc1 | 13.8 µM | > 13.8 µM | – | –
Cn1nc(C(F)(F)F)cc1C(=O)Nc1ccc(S(=O)(=O)N2CCNCC2)cc1 | – | 28 µM | – | –
CC1CCCCN1S(=O)(=O)c1cccc(NC(=O)c2cc(C(F)(F)F)nn2C)c1 (configuration not stated) | 84 µM | > 75 µM | – | –
CC1CCCCN1S(=O)(=O)c1ccc(NC(=O)c2cc(C(F)(F)F)nn2C)cc1 (configuration not stated) | > 300 µM | < 2.3 µM | 0.029 µM | CC50 [5]: 54 µM
CC1CCCCN1S(=O)(=O)c1ccc(NC(=O)c2cc(C(F)(F)F)nn2C(C)C)cc1 (configuration not stated) | > 300 µM | > 75 µM | – | –
CC1CCCC(C)N1S(=O)(=O)c1ccc(NC(=O)c2cc(C(F)(F)F)nn2C)cc1 (configuration not stated) | > 300 µM | < 2.3 µM | 0.014 µM | CC50 [5]: 328 µM
Cn1nc(C(F)(F)F)cc1C(=O)Nc1ccc(S(=O)(=O)N2CCC(N)CC2)cc1 | > 300 µM | > 75 µM | – | –
Cn1nc(C(F)(F)F)cc1C(=O)Nc1ccc(S(=O)(=O)N2CCCCC2)cc1 | > 300 µM | < 2.3 µM | 0.014 µM | selectivity ratio [6]: > 130; selectivity ratio [7]: 14200
CCn1nc(C(F)(F)F)cc1C(=O)Nc1ccc(S(=O)(=O)N2CCCCC2C)cc1 (configuration not stated) | 30 µM | < 2.3 µM | 0.055 µM | –
Cn1nc(C(F)(F)F)cc1C(=O)Nc1ccc(S(=O)(=O)N2CCCC2)cc1 | – | – | – | EC50 [8]: 0.25 µM
Cn1nc(C(F)(F)F)c(Br)c1C(=O)Nc1ccc(S(=O)(=O)N2CCCC2)cc1 | 95 µM | > 75 µM | – | selectivity ratio [6]: < 1.3
Cn1nc(C(F)(F)F)cc1C(=O)Nc1ccc(S(=O)(=O)N2CCOCC2)cc1 | > 300 µM | 43 µM | – | –
Cn1nc(C(F)(F)F)cc1C(=O)Nc1ccc(S(=O)(=O)N2CCC[C@H]2C(=O)O)cc1 | > 300 µM | 23 µM | – | –
Cn1nc(C(F)(F)F)cc1C(=O)Nc1ccc(S(=O)(=O)N2CCCCCC2)cc1 | > 300 µM | < 2.3 µM | 0.005 µM | CC50 [5]: 425 µM
Cn1nc(C(F)(F)F)cc1C(=O)Nc1ccc(S(=O)(=O)N2CCCCC2C(=O)OC(C)(C)C)cc1 (configuration not stated) | 38 µM | > 38 µM | – | –

Compound | CC50 [2] | EC50 [3] | EC50 [4] | other results
CC(C)N(C(C)C)S(=O)(=O)c1ccc(NC(=O)c2cc(C(F)(F)F)nn2C)cc1 | > 300 µM | 3.5 µM | 0.53 µM | –
COC=C1CCN(S(=O)(=O)c2ccc(NC(=O)c3cc(C(F)(F)F)nn3C)cc2)CC1 | 92 µM | > 75 µM | – | –
Cn1nc(C(F)(F)F)cc1C(=O)Nc1ccc(S(=O)(=O)NC2CCCCC2)cc1 | 15 µM | > 15 µM | – | –
O=C(O)c1ccccc1-n1nc(C(F)(F)F)cc1C(=O)Nc1ccc(S(=O)(=O)N2CCCC2)cc1 | – | > 75 µM | > 75 µM | CC50 [5]: > 300 µM
Cn1nc(C(F)(F)F)cc1C(=O)Nc1ccc(S(=O)(=O)N2CCC(O)CC2)cc1 | 274 µM | 6.8 µM | 0.57 µM | –
CC1CCCCN1S(=O)(=O)c1ccccc1NC(=O)c1cc(C(F)(F)F)nn1C (configuration not stated) | > 300 µM | > 75 µM | – | –
Cn1nc(C(F)(F)F)cc1C(=O)Nc1ccc(S(=O)(=O)N2CCCC(C(=O)O)C2)cc1 (configuration not stated) | > 300 µM | > 75 µM | – | –
CCC1CCCCN1S(=O)(=O)c1ccc(NC(=O)c2cc(C(F)(F)F)nn2C)cc1 (configuration not stated) | > 300 µM | < 2.3 µM | 0.087 µM | CC50 [5]: 14 µM
CN(C(=O)c1cc(C(F)(F)F)nn1C)c1ccc(S(=O)(=O)N2CCCCC2)cc1 | 286 µM | > 75 µM | – | –
CCN(CC)S(=O)(=O)c1ccc(NC(=O)c2cc(C(F)(F)F)nn2C)cc1 | > 300 µM | < 2.3 µM | 0.019 µM | CC50 [5]: 280 µM
Cn1nc(C(F)(F)F)cc1C(=O)Nc1ccc(S(=O)(=O)n2ccc3ccccc32)cc1 | – | > 13 µM | – | –
Cn1nc(C(F)(F)F)cc1C(=O)Nc1ccc(S(=O)(=O)N2CCCCCCC2)cc1 | 16 µM | < 2.3 µM | 0.045 µM | –
Cn1nc(C(F)(F)F)cc1C(=O)Nc1ccc(S(=O)(=O)N2CCN(CCOCCO)CC2)cc1 | > 300 µM | > 75 µM | – | –
Cn1nc(C(F)(F)F)cc1C(=O)Nc1ccc(S(=O)(=O)N2CCC(NC(=O)OC(C)(C)C)CC2)cc1 | > 300 µM | 14.1 µM | – | –
Cn1nc(C(F)(F)F)cc1C(=O)Nc1ccc(S(=O)(=O)N2CCN(C(=O)OC(C)(C)C)CC2)cc1 | > 300 µM | > 75 µM | – | –
Nc1ccc(O)c(NC(=O)Cc2ccccc2)c1 | – | – | – | EC50 [8]: 0.26 µM
Cn1nc(C(F)(F)F)cc1C(=O)Nc1ccc(S(=O)(=O)OC2CCCCC2)cc1 | > 300 µM | > 75 µM | – | –
CC1CCCCN1S(=O)(=O)c1ccc(NC(=O)c2cc(C(F)(F)F)nn2Cc2ccccc2)cc1 (configuration not stated) | – | > 19 µM | > 19 µM | CC50 [5]: 19 µM
Cn1nc(C(F)(F)F)cc1C(=O)Nc1ccc(S(=O)(=O)N2CCCCC2CO)cc1 (configuration not stated) | – | < 2.3 µM | 0.85 µM | –
COC(=O)c1ccccc1-n1nc(C(F)(F)F)cc1C(=O)Nc1ccc(S(=O)(=O)N2CCCC2)cc1 | – | > 75 µM | > 75 µM | CC50 [5]: > 300 µM
NC(=O)c1ccc([N+](=O)[O-])cc1NC(=O)Cc1ccccc1 | – | – | – | EC50 [8]: 0.6 µM
Cn1nc(C(F)(F)F)cc1C(=O)Nc1ccc(S(=O)(=O)N2CCCCC2C(=O)O)cc1 (configuration not stated) | > 300 µM | > 75 µM | – | –
